In US6756362B2, “Methods and compositions based on inhibition of cell invasion and fibrosis by anionic polymers” (priority 1991, dated 2004):

Tests used:
[1] = test system: epidural fibrosis at laminectomy site, Lewis inbred rats; test: Epidural fibrosis after lumbar laminectomy in rats, gross evaluation; type: in vivo, rat; design: TOTAL SCORE / TOTAL SCORE 2 WEEKS: scale not given here; conditions: for inhibition of scar formation (in words): 20 mg/ml, versus buffer control; for TOTAL SCORE: Table 5, agent 20 mg/ml
Procedure: Epidural fibrosis was investigated after lumbar laminectomy in rats. In this model, a laminectomy was performed at the lumbar 3 and 5 vertebrae and then the test agent was applied to the laminectomy site. Subsequently, the laminectomy sites were examined for fibrosis by gross dissection or by histological analysis.
Laminectomies (described below) were performed at lumbar vertebrae L3 and L5 to provide auto-controls within each animal. Segments of GELFOAM® (Upjohn) soaked with experimental or control solutions were inserted into the laminectomy site. The soared GELFOAM® fragments were prepared and coded 24 hours beforehand. The GELFOAM® segments were soaked in solutions of dextran sulfate in calcium/magnesium-free phosphate buffered saline (CMF-PBS), dextran in CMF-PBS, or CMF-PBS alone. In some laminectomy sites, the GELFOAM® fragments were omitted, in order to serve as sham operations. Subsequently, the evaluation by gross dissection was done without knowledge of which solutions had been placed in which laminectomy site. Thus, the experiments were double-blind.
Lewis inbred rats were anesthetized with 4% chloral hydrate (34 mg/100 g body weight). The dorsal skin was incised and the paraspinal muscles were separated from the spinous processes of lumbar vertebrae L2 through L6. The spinous processes of L3 and L5 were removed with a rongeurs; then the vertebral lamina was removed with a micro-rongeurs creating a rectangular laminectomy defect 4×2 mm in size. After bleeding was stopped, a GELFOAM® segment was placed into the laminectomy site according to a randomized protocol. The overlying paraspinal muscles were closed over the site by suturing the superficial fascia together with resorbable 6-0 PDS II (Ethicon). The skin incision was closed with wound clips.
The animals were kept for two weeks prior to gross evaluation. At that time, the rats were anesthetized with 4% chloral hydrate and the wound was reopened by incising, the skin and separating the paraspinal muscles. The quality and quantity of scar tissue above the laminectomy site, the appearance of the GELFOAM® and the extent of new bone growth was evaluated by visual and tactile observation during sharp dissection. After the gross evaluation was complete, the rats were euthanized by anesthesia overdose.
All gross evaluations were made prior to breaking the treatment code, but the observations have been tabulated and presented below according to treatment group.

Sulfur content = type: physicochemical; conditions: by weight
[2] = test system: rat meningeal fibroblasts (RMF); test: Colorimetric cell adhesion assay, RMF; type: cell-based; conditions: RMF on PLL; 4 hr incubation; FIG. 7
Procedure: Primary Cell Cultures. Primary cultures of rat meningeal fibroblasts (RMF) were obtained from P-3 rat pups. The tissue was removed from the animals and transferred to Leibovitz's L-15 with L-glutamine medium. The tissue was then cut into small pieces with a scalpel blade, enzymatically dissociated with 0.25% trypsin in Ca^2+/Mg^2+ free Hank's balanced salt solution (CMF-HBSS, Gibco Laboratories) for 20 minutes at 37° C., and mechanically triturated. The cells were rinsed with DMEM plus 10% FCS, concentrated by centrifugation and subsequently diluted in DMEM with 10% FCS for plating at 5.0×10^6 cells per 75 cm^2 flask. Adult rat sciatic nerve fibroblasts (RSF) were obtained by explantation of 1 mm sections of adult rat sciatic nerve.
(§1) Microtiter plates were precoated with poly-L-lysine and blocked with 1% BSA in DMEM for 20 min prior to addition of cells. The cells were plated on the precoated 96-well plates and test compounds were added to the culture medium. Following 4-24 hr incubation at 36° C., 5% C02, in a humidified incubator, the tetrazolium salt MTT (3-(4,5-dimethylthazol-2-yl)-2,5-diphenyl tetrazolium bromide) was added. The cultures were incubated for 2 hr to allow mitochondrial succinate dehydrogenase, found in viable cells, to […] the MTT to its formazan blue reaction product. The media was aspirated and the wells were rinsed to remove all detached cells. The formazan blue reaction product in attached cells was solubilized with 0.08 N HCl in isopropanol, and the plates were read in a microtiter plate reader (Dynatech MR4000) at 570 nm with a 630 nm reference filter. The resulting optical density readings are directly related to the number of viable cells in the well (Mosmann, T., 1983, J. Immunol. Methods 65:55-63). The samples were run in 3-6 replicates per point and the SD was less than 5%.
(§2) The adhesion of fibroblasts to PLL-coated microtiter plates in the presence of test compounds in the culture medium was evaluated using an MTT assay as described in Section 8.1.5., supra, and the number of attached cells was expressed as percent of control. The effect of 4 hr incubation in the presence of heparin, pentosan polysulfate, dextran sulfate, and dextran on adhesion of rat meningeal fibroplasts (RMF) and 3T3 cells to PLL is shown in FIG. 7.

3T3 cells = test: Colorimetric cell adhesion assay, 3T3; type: cell-based, mouse; conditions: 3T3 cells on PLL; 4 hr incubation; FIG. 7
Procedure: (§3) Cell lines. Murine 3T3 fibroblast (NIH), rat C6 glioma (Paganetti et al., 1988, J. Cell Biol. 107:2281) and MCG-28 young immortalized mouse astrocyte (a murine neonatal astrocyte line immortalized with SV-40) were grown in medium composed of Dulbecco's modified Eagle medium (DMEM), 10% fetal calf serum (Gibco Laboratories), and penicillin G/streptomycin (100 units/ml, 100 μg/ml respectively, Gibco Laboratories). For the stripe assay, confluent plates were disaggregated with 0.05% trypsin, 0.53 mM EDTA (Gibco Laboratories) and seeded at 200,000 cells/ml (3 ml/plate). For the cell adhesion assays, confluent cultures were disaggregated with 0.03% EDTA and plated in a 96-well microtiter plate at 20,000-100,000 cells per well. PC12 cells, a pheochromocytoma cell line (Green L. A. & Tischler A. S., 1976, Proc. Natl. Acad. Sci. U.S.A. 73:2424), were grown in medium containing Roswell Park Memorial Institute (RPMI) medium 1640 (Gibco Laboratories), 10% horse serum, 5% fetal calf serum (FCS), and penicillin G/streptomycin (100 units/ml, 100 μg/ml respectively, Gibco Laboratories). The cells were disaggregated with 0.03% EDTA and plated in a 96-well microtiter plate at 3,000 cells per well.
as §1, §2

PC12 cells = test: PC12 neurite outgrowth assay; type: cell-based; conditions: NGF-primed PC12 cells; scored 2 days later
Procedure: as §3
PC12 cells were primed with 20 ng/ml NGF for 8 days, collected with 0.03% EDTA in PBS and plated in precoated 96-well microtiter plates at 3,000 cells/well. The microtiter plates were precoated with poly-L-lysine and blocked with adhesion medium (1% BSA in RPMI) for 20 min prior to addition of cells. The cells were grown in adhesion medium supplemented with 20 ng/ml NGF. The cells were allowed to attach for 2 hr prior to the addition of the test compounds (Akeson and Warren, 1986, Exp. Cell Res. 162:347-362).
PC-12 cells primed with NGF were plated in 96-well plates. Test solutions were added to the wells and the cells were scored 2 days later as (+) if neurites of at least two cell bodies diameter in length were present on the majority of the cells, and (−) if no or only short processes were present. […] The compounds tested included GAGs (heparin, dermatan sulfate, chondroitin sulfate A, keratan sulfate and hyaluronic acid), sulfated carbohydrate polymers (dextran sulfate and pentosan polysulfate), and another polyanionic polymer (e.g., alginic acid).

Row | Sulfur Content (Sulfur content) | Substance | inhibition of scar formation (in words) [1] | TOTAL SCORE [1] | number of attached cells compared to untreated controls [2] | number of attached cells compared to untreated controls (3T3 cells) | IC100, minimum concentration causing 100% inhibition of neurite outgrowth (PC12 cells) [g/mL]
1 | 16.5% | pentosan polysulfate [reference compound] | partial inhibition | 5.0 ± 1.0 | decreased | decreased | 3.9e-07
2 | 5.6% | chondroitin sulfate A |  |  |  |  | 0.0005
3 | 0% | alginate | marginal improvement | 7.3 ± 1.9 |  |  | 3.1e-06

Continued, substance first:

Row | Substance | Sulfur Content (Sulfur content) | inhibition of scar formation (in words) [1] | TOTAL SCORE [1] | number of attached cells compared to untreated controls [2] | number of attached cells compared to untreated controls (3T3 cells) | IC100, minimum concentration causing 100% inhibition of neurite outgrowth (PC12 cells) [g/mL]
4 | keratan sulfate | 6.4% |  |  |  |  | 
5 | dermatan sulfate [Dermatan sulfate 90%] | 6.0% |  |  |  |  | 1.5e-05
6 | hyaluronic acid [reference compound] | 0.6-0.8% | no ability to inhibit scar formation | 9.3 ± 0.5 |  |  | 0.0002
